According to patent US12544395B2, “Combination compositions comprising a beta-lactamase inhibitor and uses thereof” (priority 2018, dated 2026):

Columns and labels:
Type in all cases: cell-based
K. pneumoniae KP 8 = assay: Broth microdilution MIC (strain enzymes: TEM-10, TEM-1, CTX-M15); details: with inhibitor at 4 μg/mL
E. coli SI-AIRT-4 = assay: Broth microdilution MIC (strain enzymes: TEM-1)
E. coli 1924 = assay: Broth microdilution MIC (strain enzymes: TEM-12)
K. pneumoniae ESBL 10 = assay: Broth microdilution MIC (strain enzymes: SHV-12, TEM-1)
E. coli ESBL 2 = assay: Broth microdilution MIC (strain enzymes: TEM-1)
K. pneumoniae KP 4 = assay: Broth microdilution MIC (strain enzymes: SHV-2a, SHV-5, TEM-1)
E. coli SI-LP377 = assay: microbe, parasite or virus in culture; details: with inhibitor at 1 μg/mL

Q: For `CCC(=O)N[C@H]1Cc2cccc(C(=O)O)c2OB1O` [Compound 2, (R)-2-hydroxy-3-propionamido-3,4-dihydro-2H-benzo[e][1,2]oxaborinine-8-carboxylic acid], which “MIC of cefdinir (CDR)” value (K. pneumoniae KP 8) is on record?
A: 0.125 µg/mL

Q: And the “MIC of cefixime (CFM)” value (K. pneumoniae KP 8)?
A: 0.125 µg/mL

Q: What about the “MIC of ceftibuten (CTB)” value (K. pneumoniae KP 8) of the same molecule?
A: 0.03 µg/mL

Q: And the “MIC of cefalexin (LEX)” value (E. coli SI-AIRT-4; with inhibitor at 1 μg/mL)?
A: 0.25 µg/mL

Q: What about the “MIC of cefdinir (CDR)” value (E. coli SI-AIRT-4; with inhibitor at 1 μg/mL) of the same molecule?
A: 0.25 µg/mL

Q: And the “MIC of cefixime (CFM)” value (E. coli SI-AIRT-4; with inhibitor at 1 μg/mL)?
A: 0.125 µg/mL

Q: What about the “MIC of ceftibuten (CTB)” value (E. coli SI-AIRT-4; with inhibitor at 1 μg/mL) of the same molecule?
A: 0.06 µg/mL

Q: And the “MIC of cefalexin (LEX)” value (E. coli SI-AIRT-4; with inhibitor at 2 μg/mL)?
A: 0.25 µg/mL

Q: What about the “MIC of cefdinir (CDR)” value (E. coli SI-AIRT-4; with inhibitor at 2 μg/mL) of the same molecule?
A: 0.25 µg/mL

Q: And the “MIC of cefixime (CFM)” value (E. coli SI-AIRT-4; with inhibitor at 2 μg/mL)?
A: 0.125 µg/mL

Q: And the “MIC of ceftibuten (CTB)” value (E. coli SI-AIRT-4; with inhibitor at 2 μg/mL)?
A: 0.06 µg/mL

Q: And the “MIC of cefalexin (LEX)” value (E. coli SI-AIRT-4; with inhibitor at 4 μg/mL)?
A: 0.25 µg/mL

Q: And the “MIC of cefdinir (CDR)” value (E. coli SI-AIRT-4; with inhibitor at 4 μg/mL)?
A: 0.25 µg/mL

Q: And the “MIC of cefixime (CFM)” value (E. coli SI-AIRT-4; with inhibitor at 4 μg/mL)?
A: 0.06 µg/mL

Q: What about the “MIC of ceftibuten (CTB)” value (E. coli SI-AIRT-4; with inhibitor at 4 μg/mL) of the same molecule?
A: 0.06 µg/mL

Q: What about the “MIC of cefalexin (LEX)” value (E. coli 1924; with inhibitor at 1 μg/mL) of the same molecule?
A: 0.5 µg/mL

Q: What about the “MIC of cefdinir (CDR)” value (E. coli 1924; with inhibitor at 1 μg/mL) of the same molecule?
A: 0.5 µg/mL

Q: And the “MIC of cefixime (CFM)” value (E. coli 1924; with inhibitor at 1 μg/mL)?
A: 0.5 µg/mL

Q: And the “MIC of ceftibuten (CTB)” value (E. coli 1924; with inhibitor at 1 μg/mL)?
A: 0.125 µg/mL

Q: And the “MIC of cefalexin (LEX)” value (E. coli 1924; with inhibitor at 2 μg/mL)?
A: 0.25 µg/mL

Q: What about the “MIC of cefdinir (CDR)” value (E. coli 1924; with inhibitor at 2 μg/mL) of the same molecule?
A: 0.25 µg/mL

Q: And the “MIC of cefixime (CFM)” value (E. coli 1924; with inhibitor at 2 μg/mL)?
A: 0.5 µg/mL

Q: And the “MIC of ceftibuten (CTB)” value (E. coli 1924; with inhibitor at 2 μg/mL)?
A: 0.25 µg/mL

Q: What about the “MIC of cefalexin (LEX)” value (E. coli 1924; with inhibitor at 4 μg/mL) of the same molecule?
A: 0.25 µg/mL

Q: What about the “MIC of cefdinir (CDR)” value (E. coli 1924; with inhibitor at 4 μg/mL) of the same molecule?
A: 0.25 µg/mL

Q: What about the “MIC of cefixime (CFM)” value (E. coli 1924; with inhibitor at 4 μg/mL) of the same molecule?
A: 0.25 µg/mL

Q: What about the “MIC of ceftibuten (CTB)” value (E. coli 1924; with inhibitor at 4 μg/mL) of the same molecule?
A: 0.125 µg/mL

Q: What about the “MIC of cefalexin (LEX)” value (K. pneumoniae ESBL 10; with inhibitor at 1 μg/mL) of the same molecule?
A: 1 µg/mL

Q: And the “MIC of cefdinir (CDR)” value (K. pneumoniae ESBL 10; with inhibitor at 1 μg/mL)?
A: 1 µg/mL

Q: What about the “MIC of cefixime (CFM)” value (K. pneumoniae ESBL 10; with inhibitor at 1 μg/mL) of the same molecule?
A: 2 µg/mL

Q: What about the “MIC of ceftibuten (CTB)” value (K. pneumoniae ESBL 10; with inhibitor at 1 μg/mL) of the same molecule?
A: 0.25 µg/mL

Q: And the “MIC of cefalexin (LEX)” value (K. pneumoniae ESBL 10; with inhibitor at 2 μg/mL)?
A: 1 µg/mL

Q: What about the “MIC of cefdinir (CDR)” value (K. pneumoniae ESBL 10; with inhibitor at 2 μg/mL) of the same molecule?
A: 1 µg/mL

Q: What about the “MIC of cefixime (CFM)” value (K. pneumoniae ESBL 10; with inhibitor at 2 μg/mL) of the same molecule?
A: 1 µg/mL

Q: And the “MIC of ceftibuten (CTB)” value (K. pneumoniae ESBL 10; with inhibitor at 2 μg/mL)?
A: 0.25 µg/mL

Q: And the “MIC of cefalexin (LEX)” value (K. pneumoniae ESBL 10; with inhibitor at 4 μg/mL)?
A: 0.5 µg/mL

Q: What about the “MIC of cefdinir (CDR)” value (K. pneumoniae ESBL 10; with inhibitor at 4 μg/mL) of the same molecule?
A: 0.5 µg/mL

Q: And the “MIC of cefixime (CFM)” value (K. pneumoniae ESBL 10; with inhibitor at 4 μg/mL)?
A: 0.5 µg/mL

Q: And the “MIC of ceftibuten (CTB)” value (K. pneumoniae ESBL 10; with inhibitor at 4 μg/mL)?
A: 0.25 µg/mL

Q: What about the “MIC of cefalexin (LEX)” value (E. coli ESBL 2; with inhibitor at 1 μg/mL) of the same molecule?
A: 0.5 µg/mL

Q: And the “MIC of cefdinir (CDR)” value (E. coli ESBL 2; with inhibitor at 1 μg/mL)?
A: 0.5 µg/mL

Q: What about the “MIC of cefixime (CFM)” value (E. coli ESBL 2; with inhibitor at 1 μg/mL) of the same molecule?
A: 0.25 µg/mL

Q: What about the “MIC of ceftibuten (CTB)” value (E. coli ESBL 2; with inhibitor at 1 μg/mL) of the same molecule?
A: 0.125 µg/mL

Q: What about the “MIC of cefalexin (LEX)” value (E. coli ESBL 2; with inhibitor at 2 μg/mL) of the same molecule?
A: 0.5 µg/mL

Q: And the “MIC of cefdinir (CDR)” value (E. coli ESBL 2; with inhibitor at 2 μg/mL)?
A: 0.5 µg/mL

Q: And the “MIC of cefixime (CFM)” value (E. coli ESBL 2; with inhibitor at 2 μg/mL)?
A: 0.25 µg/mL

Q: And the “MIC of ceftibuten (CTB)” value (E. coli ESBL 2; with inhibitor at 2 μg/mL)?
A: 0.125 µg/mL

Q: And the “MIC of cefalexin (LEX)” value (E. coli ESBL 2; with inhibitor at 4 μg/mL)?
A: 0.25 µg/mL

Q: What about the “MIC of cefdinir (CDR)” value (E. coli ESBL 2; with inhibitor at 4 μg/mL) of the same molecule?
A: 0.25 µg/mL

Q: What about the “MIC of cefixime (CFM)” value (E. coli ESBL 2; with inhibitor at 4 μg/mL) of the same molecule?
A: 0.125 µg/mL

Q: What about the “MIC of ceftibuten (CTB)” value (E. coli ESBL 2; with inhibitor at 4 μg/mL) of the same molecule?
A: 0.125 µg/mL

Q: What about the “MIC of cefalexin (LEX)” value (K. pneumoniae KP 4; with inhibitor at 1 μg/mL) of the same molecule?
A: 0.5 µg/mL

Q: And the “MIC of cefdinir (CDR)” value (K. pneumoniae KP 4; with inhibitor at 1 μg/mL)?
A: 0.5 µg/mL

Q: And the “MIC of cefixime (CFM)” value (K. pneumoniae KP 4; with inhibitor at 1 μg/mL)?
A: 2 µg/mL

Q: And the “MIC of ceftibuten (CTB)” value (K. pneumoniae KP 4; with inhibitor at 1 μg/mL)?
A: 0.25 µg/mL

Q: What about the “MIC of cefalexin (LEX)” value (K. pneumoniae KP 4; with inhibitor at 2 μg/mL) of the same molecule?
A: 0.5 µg/mL

Q: What about the “MIC of cefdinir (CDR)” value (K. pneumoniae KP 4; with inhibitor at 2 μg/mL) of the same molecule?
A: 0.5 µg/mL

Q: What about the “MIC of cefixime (CFM)” value (K. pneumoniae KP 4; with inhibitor at 2 μg/mL) of the same molecule?
A: 0.5 µg/mL

Q: And the “MIC of ceftibuten (CTB)” value (K. pneumoniae KP 4; with inhibitor at 2 μg/mL)?
A: 0.125 µg/mL

Q: What about the “MIC of cefalexin (LEX)” value (K. pneumoniae KP 4; with inhibitor at 4 μg/mL) of the same molecule?
A: 0.125 µg/mL

Q: And the “MIC of cefdinir (CDR)” value (K. pneumoniae KP 4; with inhibitor at 4 μg/mL)?
A: 0.125 µg/mL

Q: What about the “MIC of cefixime (CFM)” value (K. pneumoniae KP 4; with inhibitor at 4 μg/mL) of the same molecule?
A: 0.25 µg/mL

Q: And the “MIC of ceftibuten (CTB)” value (K. pneumoniae KP 4; with inhibitor at 4 μg/mL)?
A: 0.125 µg/mL

Q: What about the “MIC of cefalexin (LEX)” value (E. coli SI-LP377) of the same molecule?
A: 4 µg/mL

Q: And the “MIC of cefdinir (CDR)” value (E. coli SI-LP377)?
A: 4 µg/mL

Q: What about the “MIC of cefixime (CFM)” value (E. coli SI-LP377) of the same molecule?
A: 0.5 µg/mL

Q: What about the “MIC of ceftibuten (CTB)” value (E. coli SI-LP377) of the same molecule?
A: 0.125 µg/mL
